{"source": "patent US20120004199A1", "about": "“SCAFFOLDS” (priority 2009, published 2012)", "key": {"NF-κB/p65": {"system": "NF-κB/p65", "experiment": "NF-κB/p65 activation immunolabelling in 2D fibroblast cultures stimulated with LPS or TNF-α", "type": "cell-based, human", "conditions": "for effect on LPS induced NF-κB activation / effect on TNF induced NF-κB activation: 10^−4 and 10^−3M; for effect on LPS induced NF-κB activation: LPS 100 ng/mL; for effect on TNF induced NF-κB activation: TNF-α 1000 U/mL", "procedure": "LPS from E. coli serotype O111:B4 (Sigma-Aldrich) at 100 ng/mL or TNF-α (Sigma-Aldrich) at 1000 U/mL was used as a positive control for activation of NF-κB in fibroblasts. In preliminary experiments, Ibuprofen (10^−3 and 10^−4 M, sodium salt and isomer mixture; Sigma-Aldrich, UK) was used to downregulate NF-κB activation. Then the 10% Ibuprofen loaded PLGA scaffolds (75/25, 50/50 and a 1:1 blend of these two) were examined. Negative controls were produced by incubating cells in normal DMEM. All experiments were performed in triplicate.\nFollowing the Ibuprofen treatments, monolayers were washed in PBS and the cells were fixed in 10% formalin (500 μL per well) for 30 minutes. Cell monolayers were washed a further three times in PBS, prior to cell permeabilisation with 0.1% Triton X100 for 20 minutes. Subsequently, cells were washed three times with PBS. Unreactive binding sites were blocked by adding a 5% dried milk powder solution to each well for 1 hour. A further three washes in PBS were performed prior to incubation with the first antibody solution. The first antibody (rabbit polyclonal antihuman IgG NF-κB p65 C-20, Santa Cruz Biotechnology Inc., CA) was added at a concentration of 1:100 in 1% PBS-dried milk powder. Cells were incubated in the antibody solution at 4° C. for 18 hours. The cells were washed three more times in PBS. Afterwards, cells were incubated with biotinylated goat anti-rabbit (1:1000) (Vector Laboratories, CA) in 1% PBS-milk powder. The cells were then washed a further three times in PBS. Streptavidin-FITC (Vector Laboratories, CA) conjugate was then added to the wells at a concentration of 1:100 in PBS. A further three washes in PBS were performed. After this time, the fluorescent staining were visualised using an AXON image express system (Axon Instruments/Molecular Devices, Union City, Calif.). Briefly, fluorescence micrographs of immunolabelled samples were taken using epifluorescent illumination at λex 495 nm λem 515 nm (for FITC visualisation); λex 358 nm λem 461 nm (for DAPI visualisation). DAPI fluorescence was used to identify nuclear position. The boundary between nucleus and cytoplasm was delimited by analysis software (ImageXpress Console 1.0) using DAPI micrographs in a sample of at least 100 cellular counts per visual field. Within the defined region, the intensity of FITC (NF-κB/p65) labelling was used to calculate activation for each micrograph and sample. […] The analysis of the micrographs was done in triplicate."}, "human fibroblast (HDF)": {"system": "human fibroblast (HDF)", "experiment": "MTT-ESTA assay of cell metabolic activity, 2D HDF cultures", "type": "cell-based", "conditions": "for % Viability: 24 h exposure, HDF; for concentration showing a cytotoxic response: fibroblast viability", "procedure": "(§1) Normal human fibroblasts were isolated and cultured as described previously (Ralston et al., 1997). […] Keratinocytes were cultured in Dulbecco's modified Eagle's medium (DMEM) supplemented with 10% (v/v) foetal calf serum (FCS), 2 mM glutamine, 0.625 μg/ml amphotericin B, 100 IU/ml penicillin and 100 μg/ml streptomycin."}, "[1]": {"experiment": "MTT-ESTA assay of cell metabolic activity, 2D HDF cultures", "type": "cell-based, human", "conditions": "human, normal human dermal fibroblasts (HDF), 2D monolayer culture, 24 h exposure, HDF", "procedure": "as §1"}}}
{"molecule": "CC(C)Cc1ccc(C(C)C(=O)O)cc1", "note": "(racemic) [Ibuprofen isomer mixture, 2-(4-isobutylphenyl)propionic acid]", "values": [{"measurement": "effect on LPS induced NF-κB activation", "setting": "NF-κB/p65", "value": "significantly reducing the response"}, {"measurement": "effect on TNF induced NF-κB activation", "setting": "NF-κB/p65", "value": "significantly reducing the response"}, {"measurement": "% Viability", "setting": "human fibroblast (HDF); Treatment 10^−2", "value": 7.20, "unit": "%"}, {"measurement": "% Viability", "setting": "human fibroblast (HDF); Treatment 10^−3", "value": 101.11, "unit": "%"}, {"measurement": "% Viability", "setting": "human fibroblast (HDF); Treatment 10^−4", "value": 108.56, "unit": "%"}, {"measurement": "% Viability", "setting": "human fibroblast (HDF); Treatment 10^−5", "value": 111.80, "unit": "%"}, {"measurement": "% Viability", "setting": "human fibroblast (HDF); Treatment 10^−6", "value": 109.43, "unit": "%"}, {"measurement": "concentration showing a cytotoxic response", "setting": "human fibroblast (HDF)", "value": "10^−2 M"}]}
{"molecule": "CC(C)Cc1ccc(C(C)C(=O)[O-])cc1.[Na+]", "note": "(centres unmarked) [Ibuprofen Sodium Salt]", "values": [{"measurement": "effect on LPS induced NF-κB activation", "setting": "NF-κB/p65", "value": "significantly reducing the response"}, {"measurement": "effect on TNF induced NF-κB activation", "setting": "NF-κB/p65", "value": "significantly reducing the response"}, {"measurement": "% Viability", "setting": "human fibroblast (HDF); Treatment 10^−2", "value": 38.25, "unit": "%"}, {"measurement": "concentration showing a cytotoxic response", "setting": "human fibroblast (HDF)", "value": "10^−2 M"}, {"measurement": "viability at 24 h", "setting": "[1]; Treatment 10^−3", "value": 90.3, "unit": "%"}, {"measurement": "viability at 24 h", "setting": "[1]; Treatment 10^−4", "value": 98.2, "unit": "%"}, {"measurement": "viability at 24 h", "setting": "[1]; Treatment 10^−5", "value": 100, "unit": "%"}, {"measurement": "viability at 24 h", "setting": "[1]; Treatment 10^−6", "value": 102, "unit": "%"}]}
{"molecule": "TNF-α", "values": [{"measurement": "activation of NF-κB", "setting": "NF-κB/p65; stimulus alone, LPS 100 ng/mL or TNF-α 1000 U/mL", "value": 80, "unit": "%"}]}
